Data from patent publication US20230027066A1 (Urovant Sciences GmbH, priority 2019, published 2023).

System: men and women with overactive bladder
Test: Phase 3 study of vibegron 75 mg vs placebo and tolterodine ER 4 mg, 12 weeks, efficacy (voiding and urine volume diary)
Assay type: in vivo, human
Description: Enrollment of patients included individuals with OAB Wet (those with UUI, the involuntary loss of urine accompanied by urgency) and OAB Dry (those without UUI). A total of 1,518 patients were randomized across 215 study sites into one of three groups for a 12-week treatment period.
The study consisted of a Screening Period (1 to 5 weeks), a single-blind Run-in Period (2 weeks), a randomized double-blind Treatment Period (12 weeks), and a Follow-up Period (4 weeks).
Tolterodine ER 4 mg was the active control. […] Between the Baseline and Week 12 Visits, patients had study assessments at Week 4 and Week 8.
The Patient Voiding Diary was used by participants (via the eDiary or paper Diary) to record the frequency of daily OAB symptoms including all micturitions, urgency, incontinence, and main reason for incontinence by selecting the respective box for each symptom occurring during the course of a given day and night.
Urine volume data were collected separately by patients using the Urine Volume component of the eDiary, or the paper Urine Volume Chart. The Urine Volume Chart is a tool used in clinical practice and clinical investigation to assess voiding functions over a 24-hour period and is regarded as a useful instrument in the investigation of patients with voiding symptoms. Urine volume may be collected during any one (1) of the 7 Diary Days prior to the visit, and it should be recorded for ˜24 hours starting from the time the patient gets up for the day and continues until the time the patient gets up for the day on the next day.
For the purpose of this study, the number of micturitions was defined as the number of times a patient has voided in the toilet as indicated on the Patient Voiding Diary. Average daily micturitions were calculated using the daily entries in the Patient Voiding Diary, which was completed over the 7 days prior to each study visit. Average daily number of micturitions were calculated as the total number of micturitions that occurred on a Complete Diary Day divided by the number of Complete Diary Days in the Patient Voiding Diary. A complete diary day required confirmation by the patient in the Patient Voiding Diary that all voids and leakages had been recorded for the diary day. Baseline was defined as the average number of micturitions occurring during the last evaluable diary prior to the Baseline Visit.
The number of UUI episodes was defined as the number of times a patient had checked “urge” as the reason for accidental urine leakage. Average daily UUI episodes at each study visit were calculated in the same manner as described above for the micturition endpoint. The UUI endpoint were analyzed using only OAB Wet patients.
For the analysis of the co-primary endpoints (change from baseline in average number of daily micturitions at Week 12 and change from baseline in average number of daily urge urinary incontinence episodes at Week 12, and placebo adjustment of each), a mixed model for repeated measure (MMRM) with restricted maximum likelihood estimation was used. This model corrects for dropout and accounts for the fact that measurements taken on the same patient over time tend to be correlated by using all available information on patients within the same covariate set to derive an estimate of the treatment effect for a dropout-free population. The analysis model for each efficacy endpoint includes terms for treatment, visit, OAB Type (Wet vs Dry), Sex (Female vs Male), Region (US vs Rest of World), baseline score, and interaction of visit by treatment.
Primary inferences were drawn from treatment differences for the changes from baseline derived from the MMRM models at Week 12. As part of secondary objectives, the treatment differences for each post baseline visit were also derived using the same MMRM model. […]

[1] = Week 8, events of Events/Censored
[2] = Week 12, Age ≥ 75 years (posthoc analysis)
[3] = Week 12, No Prior ACH Use in last 12 Mo.
[4] = Week 12, No Prior B3 Agonist Use in last 12 Mo.
[5] = Week 12, Prior ACH Use in last 12 Mo.
[6] = Week 12, Prior B3 Agonist Use in last 12 Mo.

Cc1ccc(O)c([C@H](CCN(C(C)C)C(C)C)c2ccccc2)c1 [Tolterodine ER, tolterodine, reference compound]
Average daily number of urgency episodes, Mean (SD) (Week 8): 5.60 (4.266) | Average volume voided per micturition, Active - Placebo LS Mean Difference (Week 8): 14.4 mL | Average volume voided per micturition, Week 8 Mean (SD) (Week 8): 162.9 (74.46) mL | Change from Baseline in Average Daily Number of Total Incontinence, LS Mean (SE) (Week 8): −1.8 (0.16) | Change from baseline in average daily number of urgency episodes, LS Mean (Week 8): −2.2 | Change from baseline in average volume voided per micturition, LS Mean (SE) (Week 8): 17.5 (3.44) mL | Estimated Incidence of Subjects with 50% Decrease from Baseline (urgency episodes) (Week 8): 30.9 | Estimated Incidence of Subjects with 100% Decrease from Baseline (UUI episodes) (Week 8): 15.8 | Total Incontinence, Active - Placebo LS Mean Difference (SE) (Week 8): −0.5 (0.17) | Urgency episodes, Active - Placebo LS Mean Difference (Week 8): −0.6 | First 50% Reduction in Urgency Episodes, Events [1]: 127/290 | First 100% Reduction in UUI Episodes, Events [1]: 49/270 | Average Daily Number of Total Incontinence, Mean (SD) (Week 12): 1.89 (2.353) | Average daily number of urgency episodes, Mean (SD) (Week 12): 5.36 (4.425) | Average volume voided per micturition, Active - Placebo LS Mean Difference (Week 12): 13.3 mL | Average volume voided per micturition, Week 12 Mean (SD) (Week 12): 162.1 (72.96) mL | Change from Baseline in Average Daily Number of Total Incontinence, LS Mean (SE) (Week 12): −2.0 (0.16) | Change from baseline in average daily number of urgency episodes, LS Mean (Week 12): −2.5 | Change from baseline in average volume voided per micturition, LS Mean (SE) (Week 12): 15.5 (3.52) mL | Estimated Incidence of Subjects with 50% Decrease from Baseline (urgency episodes) (Week 12): 40.5 | Estimated Incidence of Subjects with 100% Decrease from Baseline (UUI episodes) (Week 12): 24.4 | Total Incontinence, Active - Placebo LS Mean Difference (SE) (Week 12): −0.5 (0.17) | Urgency episodes, Active - Placebo LS Mean Difference (Week 12): −0.4 | Micturitions: Week 12 CFB Mean (descriptive statistics) (Week 12, <65 yrs): −1.99 | UUI: Week 12 CFB Mean (descriptive statistics) (Week 12, African American): −1.42 | UUI: Week 12 CFB Median (Week 12, African American): −1.43 | Micturitions: Week 12 CFB LS Mean (95% CI) (Week 12, Age < 65 years): −1.8 | UUI: Week 12 CFB LS Mean (95% CI) (Week 12, Age < 65 years): −1.8 | UUI: Week 12 CFB Mean (descriptive statistics) (Week 12, Age < 65 years): −1.72 | Micturitions: Week 12 CFB LS Mean (95% CI) (Week 12, Age ≥ 65 years): −1.3 | UUI: Week 12 CFB LS Mean (95% CI) (Week 12, Age ≥ 65 years): −1.8 | UUI: Week 12 CFB Mean (descriptive statistics) (Week 12, Age ≥ 65 years): −1.80 | Micturitions: Week 12 CFB LS Mean (95% CI) [2]: −1.5 | UUI: Week 12 CFB LS Mean (95% CI) [2]: −2.0 | UUI: Week 12 CFB Mean (descriptive statistics) (Week 12, Asian): −0.21 | UUI: Week 12 CFB Median (Week 12, Asian): −0.14 | Micturitions: Week 12 CFB LS Mean (95% CI) (Week 12, Females): −1.7 | Micturitions: Week 12 CFB Mean (descriptive statistics) (Week 12, Females): −1.88 | UUI: Week 12 CFB LS Mean (95% CI) (Week 12, Females): −1.8 | UUI: Week 12 CFB Mean (descriptive statistics) (Week 12, Females): −1.71 | Micturitions: Week 12 CFB LS Mean (95% CI) (Week 12, Males): −1.0 | Micturitions: Week 12 CFB Mean (descriptive statistics) (Week 12, Males): −1.28 | UUI: Week 12 CFB LS Mean (95% CI) (Week 12, Males): −2.0 | UUI: Week 12 CFB Mean (descriptive statistics) (Week 12, Males): −2.08 | Micturitions: Week 12 CFB Mean (descriptive statistics) (Week 12, Males with BPH): −1.25 | UUI: Week 12 CFB Mean (descriptive statistics) (Week 12, Males with BPH): −2.15 | Micturitions: Week 12 CFB Mean (descriptive statistics) (Week 12, Males without BPH): −1.29 | UUI: Week 12 CFB Mean (descriptive statistics) (Week 12, Males without BPH): −2.05 | Micturitions: Week 12 CFB Mean (descriptive statistics) [3]: −1.82 | UUI: Week 12 CFB Mean (descriptive statistics) [3]: −1.88 | Micturitions: Week 12 CFB Mean (descriptive statistics) [4]: −1.83 | UUI: Week 12 CFB Mean (descriptive statistics) [4]: −1.83 | Micturitions: Week 12 CFB LS Mean (95% CI) (Week 12, Non-White): −1.3 | Micturitions: Week 12 CFB Mean (descriptive statistics) (Week 12, Non-White): −1.42 | UUI: Week 12 CFB LS Mean (95% CI) (Week 12, Non-White): −1.3 | UUI: Week 12 CFB Mean (descriptive statistics) (Week 12, Non-White): −1.11 | UUI: Week 12 CFB Median (Week 12, Non-White): −1.00 | Micturitions: Week 12 CFB LS Mean (95% CI) (Week 12, Overall): −1.6 | Micturitions: Week 12 CFB Mean (descriptive statistics) (Week 12, Overall): −1.78 | UUI: Week 12 CFB LS Mean (95% CI) (Week 12, Overall): −1.8 | UUI: Week 12 CFB Mean (descriptive statistics) (Week 12, Overall): −1.75 | Micturitions: Week 12 CFB Mean (descriptive statistics) [5]: −1.52 | UUI: Week 12 CFB Mean (descriptive statistics) [5]: −0.98 | Micturitions: Week 12 CFB Mean (descriptive statistics) [6]: −1.30 | UUI: Week 12 CFB Mean (descriptive statistics) [6]: −0.65 | Micturitions: Week 12 CFB LS Mean (95% CI) (Week 12, Region: Non-US): −1.0 | Micturitions: Week 12 CFB Mean (descriptive statistics) (Week 12, Region: Non-US): −1.38 | UUI: Week 12 CFB LS Mean (95% CI) (Week 12, Region: Non-US): −2.0 | UUI: Week 12 CFB Mean (descriptive statistics) (Week 12, Region: Non-US): −2.26 | Micturitions: Week 12 CFB LS Mean (95% CI) (Week 12, Region: US): −1.7 | Micturitions: Week 12 CFB Mean (descriptive statistics) (Week 12, Region: US): −1.83 | UUI: Week 12 CFB LS Mean (95% CI) (Week 12, Region: US): −1.7 | UUI: Week 12 CFB Mean (descriptive statistics) (Week 12, Region: US): −1.69 | Micturitions: Week 12 CFB LS Mean (95% CI) (Week 12, White): −1.6 | Micturitions: Week 12 CFB Mean (descriptive statistics) (Week 12, White): −1.90 | UUI: Week 12 CFB LS Mean (95% CI) (Week 12, White): −1.9 | UUI: Week 12 CFB Mean (descriptive statistics) (Week 12, White): −1.92 | UUI: Week 12 CFB Median (Week 12, White): −1.57
